The text below walks through data of ChEMBL document CHEMBL1201862, “PubChem BioAssay data set” (2004).

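In this assay, cells in 96-well plates receive the compound at five concentrations for 48 hours. Endpoints are linearly interpolated between the surrounding concentrations. Abbreviation: GI50, concentration required for 50% inhibition of growth.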 Activity calls are given as the source filed them. Rule as the data show it: active = GI50 up to about 1.1 µM and inactive = higher.

Holding throughout (assay): DTP human tumour cell line panel, 48 h
Experiment [1] has as its system CAKI-1.
Experiment [2] relates to CCRF-CEM.
In experiment [3] the test system is COLO 205.
Experiment [4] deals with HCT-15.
For experiment [5], the system named is HT-29.
Experiment [6] relates to IGROV-1.
For experiment [7], the system named is KM12.
Experiment [8] concerns MOLT-4.
The subject of experiment [9] is NCI-H23.
For experiment [10], the system named is OVCAR-5.
Experiment [11] concerns OVCAR-8.
The test system of experiment [12] is RXF 393.
In experiment [13] the test system is SF-295.
Experiment [14] relates to SK-MEL-2.
Experiment [15] concerns SK-MEL-5.
In experiment [16] the test system is SK-OV-3.
The test system of experiment [17] is SNB-75.
The subject of experiment [18] is SW-620.
In experiment [19] the test system is UACC-257.
For experiment [20], the system named is MCF7.

For the molecule `CCc1nnc2sc(-c3ccc(-c4ccc(Cl)cc4Cl)o3)nn12`, the GI50 in experiment [1] was 96.6 µM (inactive); in experiment [2] it was 37.3 µM (inactive); in [3], 23.1 µM (inactive); in [4], 61.7 µM; in experiment [5], 96.2 µM (inactive); in [6], > 100 µM (inactive). For the same molecule, the GI50 is > 100 µM (inactive) in [7]; 44.1 µM (inactive) in experiment [8]; 76.4 µM (inactive) in experiment [9]; > 100 µM (inactive) in [10]; 71 µM (inactive) in [11]; 3.79 µM (inactive) in experiment [12]. For the same molecule, the GI50 in [13] was 43.1 µM (inactive); in experiment [14], 58.7 µM (inactive); in [15], 34.2 µM (inactive); in experiment [16] it was 43.1 µM (inactive); in [17], 21.3 µM (inactive); in experiment [18], > 100 µM (inactive). Besides, in experiment [19], the GI50 is 43.9 µM (inactive).
Consider `COC1(OC)c2no[n+]([O-])c2CCC1O` (stereo not given), for which the GI50 is > 100 µM (inactive) in [1]; > 100 µM (inactive) in experiment [2]; > 100 µM (inactive) in experiment [3]; > 100 µM in experiment [4]; > 100 µM (inactive) in [5]; > 100 µM (inactive) in [6]. Also, the GI50 in experiment [7], in experiment [20], in experiment [8], in [9], in [10] and in experiment [11] was > 100 µM (inactive) throughout. Further, the GI50 in [12], in experiment [13], in experiment [14], in experiment [15], in experiment [16] and in [18] was > 100 µM (inactive) throughout. In experiment [19], the GI50 is > 100 µM (inactive).
As for `CCCCNC(=O)c1cc(S(=O)(=O)n2ccnc2O)c(SC)cc1Cl`, the GI50 in [1] was > 100 µM (inactive); in experiment [2], > 100 µM (inactive); in experiment [3], > 100 µM (inactive); in experiment [4], > 100 µM; in experiment [5], > 100 µM (inactive); in [6], > 100 µM (inactive). Further, the GI50 in [7], in experiment [20], in [8], in [9], in experiment [10] and in experiment [11] was > 100 µM (inactive) in each case. The GI50 in experiment [12], in [13], in experiment [14], in experiment [15], in experiment [16] and in [18] was > 100 µM (inactive) in each case. The GI50 in experiment [19] is > 100 µM (inactive).
As for `CCN(CC)/[N+]([O-])=N/O`, the GI50 in [1] was > 100 µM (inactive); in experiment [2], > 100 µM (inactive); in experiment [4] it was > 100 µM; in experiment [5], > 100 µM (inactive); in [6], > 100 µM (inactive); in experiment [7] it was > 100 µM (inactive). The GI50 in [8], in experiment [9], in experiment [10], in experiment [11], in experiment [12] and in [13] was > 100 µM (inactive) in each case. Moreover, the GI50 in experiment [14], in experiment [15], in experiment [16], in experiment [18] and in [19] was > 100 µM (inactive) throughout.
Turning to `COc1ccc(/N=C\c2ccc(N(CCC#N)S(=O)(=O)c3ccccc3)cc2C)cc1`, the GI50 was 35.5 µM (inactive) in [1]; 30.2 µM (inactive) in experiment [2]; 27.2 µM (inactive) in [3]; 8.53 µM in experiment [4]; 53.7 µM (inactive) in experiment [5]; 64.1 µM (inactive) in [6]. Moreover, the GI50 in experiment [8] is 27.4 µM (inactive); in experiment [9] it was 43 µM (inactive); in experiment [10] it was > 100 µM (inactive); in experiment [11] it was > 100 µM (inactive); in experiment [12] it was > 100 µM (inactive); in [13], 63.2 µM (inactive). The GI50 was 23.3 µM (inactive) in experiment [14]; 51.1 µM (inactive) in experiment [15]; > 100 µM (inactive) in [16]; > 100 µM (inactive) in experiment [17]; 59.8 µM (inactive) in experiment [18]; 39.5 µM (inactive) in experiment [19].
As to `O=C(NNC(=S)Nc1ccccc1)c1nsc2ccccc12`, the concentration for 50% growth inhibition (GI50) is 0.36 µM (active) in [2]; 39.7 µM (inactive) in [3]; 10.7 µM in experiment [4]; 50 µM (inactive) in experiment [5]; 31 µM (inactive) in experiment [6]; 30.4 µM (inactive) in experiment [7]. The GI50 in [8] was 20.7 µM (inactive); in [9], 36.6 µM (inactive); in experiment [10] it was 57 µM (inactive); in experiment [11], 28.6 µM (inactive); in experiment [12], 40.7 µM (inactive); in experiment [14], 19.6 µM (inactive). The GI50 in experiment [15] is 24.6 µM (inactive); in [17], 25.1 µM (inactive); in experiment [18], 40.6 µM (inactive); in experiment [19] it was 33.3 µM (inactive).
As to `CS(C)(=O)=Nn1c(=O)n2n(c1=O)C1c3ccccc3C2c2ccccc21`, the GI50 in [1] is > 100 µM (inactive); in [2], > 100 µM (inactive); in experiment [3], > 100 µM (inactive); in [4] it was > 100 µM; in [5], > 100 µM (inactive); in experiment [6] it was > 100 µM (inactive). For the same molecule, the GI50 in experiment [20], in experiment [8], in experiment [9], in experiment [10], in experiment [11] and in [12] was > 100 µM (inactive) throughout. Further, the GI50 in experiment [13] is > 100 µM (inactive); in experiment [14] it was > 100 µM (inactive); in experiment [15], 43.7 µM (inactive); in experiment [16], > 100 µM (inactive); in [18], > 100 µM (inactive); in experiment [19], > 100 µM (inactive).
Turning to `COC(=O)CN(C)P(=O)(N1CC1)N1CC1`, the GI50 in [1] is > 100 µM (inactive); in experiment [2] it was 36.9 µM (inactive); in experiment [3], > 100 µM (inactive); in experiment [4], > 100 µM; in [5], > 100 µM (inactive); in [6], > 100 µM (inactive). Moreover, the GI50 in experiment [7] is > 100 µM (inactive); in experiment [8], 33 µM (inactive); in [9], 83.4 µM (inactive); in experiment [10], > 100 µM (inactive); in experiment [11], > 100 µM (inactive); in experiment [12], > 100 µM (inactive). The GI50 in experiment [13] was 90.2 µM (inactive); in experiment [14], > 100 µM (inactive); in experiment [15], > 100 µM (inactive); in experiment [16], > 100 µM (inactive); in experiment [17] it was > 100 µM (inactive); in [18], > 100 µM (inactive). Moreover, in experiment [19], the GI50 was > 100 µM (inactive).
For the molecule `O[C@H]1[C@H]2[C@H](O)CCCN2C[C@H]1O` [TRIDOLGOSIR], the GI50 in experiment [1] was > 100 µM (inactive); in experiment [2], 85.3 µM (inactive); in experiment [3] it was > 100 µM (inactive); in experiment [4], > 100 µM; in [5], > 100 µM (inactive); in [6], > 100 µM (inactive). Further, the GI50 in experiment [7], in [8], in [9], in [10], in experiment [11] and in [12] was > 100 µM (inactive) throughout. Moreover, the GI50 in experiment [13], in [14], in experiment [15], in experiment [16], in experiment [17] and in experiment [18] was > 100 µM (inactive) each time. Further, the GI50 in experiment [19] was > 100 µM (inactive).
Turning to `CSC1SCC2C(=O)N(C)C(C(C)C)C(=O)OCC(NC(=O)c3cnc4ccccc4n3)C(=O)NC(C)C(=O)N(C)C1C(=O)N(C)C(C(C)C)C(=O)OCC(NC(=O)c1cnc3ccccc3n1)C(=O)NC(C)C(=O)N2C` (stereo not given), the GI50 is 0.0075 µM (active) in experiment [1]; 0.00925 µM (active) in [2]; 0.0075 µM (active) in experiment [3]; 0.0101 µM in [4]; 0.0075 µM (active) in [5]; 0.0075 µM (active) in [6]. Besides, the GI50 in experiment [7] was 0.0075 µM (active); in [20], 0.0075 µM (active); in [8], 0.0075 µM (active); in [10] it was 0.0075 µM (active); in experiment [11], 0.0075 µM (active); in experiment [12] it was 0.00895 µM (active). For the same molecule, the concentration for 50% growth inhibition (GI50) in experiment [13] is 0.0075 µM (active); in [14], 0.0178 µM (active); in experiment [15] it was 0.0075 µM (active); in experiment [16], < 0.0147 µM (active); in [18], 0.0075 µM (active).
With `COc1cc([C@@H]2c3cc4c(cc3[C@H](O)[C@H]3COC(=O)[C@H]23)OCO4)cc(OC)c1OC` [PODOFILOX], the GI50 in experiment [1] is 0.0897 µM (active); in experiment [2], < 0.005 µM (active); in experiment [3], < 0.005 µM (active); in [5] it was < 0.005 µM (active); in [7] it was < 0.005 µM (active); in experiment [20], < 0.005 µM (active). Moreover, the 50% growth inhibitory concentration (GI50) was < 0.005 µM (active) in experiment [8]; < 0.005 µM (active) in experiment [9]; 0.0375 µM (active) in experiment [10]; < 0.005 µM (active) in [11]; < 0.005 µM (active) in experiment [13]; < 0.005 µM (active) in experiment [16]. Besides, the GI50 in [18] is < 0.005 µM (active); in experiment [19], 29.9 µM (inactive).
